# Source: patent US10316039B2, “P2X3 and/or P2X2/3 compounds and methods” (Asana Biosciences, LLC, priority 2013, dated 2019)
# Target: T1, P2X2/3 (Homo sapiens, UniProt P56373+Q9UBL9)
# T1 sequence (Q9UBL9 1-471): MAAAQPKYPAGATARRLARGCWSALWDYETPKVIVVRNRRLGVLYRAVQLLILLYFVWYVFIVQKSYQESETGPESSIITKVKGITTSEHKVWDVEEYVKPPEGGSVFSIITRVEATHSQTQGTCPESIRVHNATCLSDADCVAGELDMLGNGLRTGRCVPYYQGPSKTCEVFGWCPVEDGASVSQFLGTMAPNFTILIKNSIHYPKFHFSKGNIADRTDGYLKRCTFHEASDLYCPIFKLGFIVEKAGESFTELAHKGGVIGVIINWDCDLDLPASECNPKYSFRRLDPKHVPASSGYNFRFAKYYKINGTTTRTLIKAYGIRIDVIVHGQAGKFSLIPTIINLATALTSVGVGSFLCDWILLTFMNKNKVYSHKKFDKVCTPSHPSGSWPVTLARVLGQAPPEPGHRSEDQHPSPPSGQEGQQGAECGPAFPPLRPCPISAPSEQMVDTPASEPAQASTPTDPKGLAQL
# T1 sequence (P56373 1-397): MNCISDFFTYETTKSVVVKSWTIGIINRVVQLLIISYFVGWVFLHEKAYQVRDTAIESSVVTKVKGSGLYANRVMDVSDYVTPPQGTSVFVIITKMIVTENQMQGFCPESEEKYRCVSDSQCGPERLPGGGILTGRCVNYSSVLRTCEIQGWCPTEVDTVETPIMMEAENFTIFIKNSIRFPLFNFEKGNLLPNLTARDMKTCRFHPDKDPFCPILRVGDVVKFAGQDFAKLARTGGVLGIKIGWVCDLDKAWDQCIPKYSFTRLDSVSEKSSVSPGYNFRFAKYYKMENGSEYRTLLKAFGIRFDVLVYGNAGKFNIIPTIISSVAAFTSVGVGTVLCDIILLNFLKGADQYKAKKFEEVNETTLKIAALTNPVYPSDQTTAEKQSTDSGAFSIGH
# Experiment: P2X2/3 FLIPR intracellular calcium assay
# Format: cell-based
# Settings: agonist at EC75, species (human or rat) not given
# Procedure, shortened: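 Stable human P2X2/3 TRex293 cells (doxycycline-induced) loaded with Calcium 4 dye; compounds, 11-point half-log series from 2 mM top stock, preincubated 15 min at RT in HBSS/HEPES pH 7.4 with 1.8 mM CaCl2. Agonist added at EC75; fluorescence change versus no-compound wells gave IC50.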
row,IC50 [nM],SMILES
1,1 to 100,C[C@H](NC(=O)c1cc(-n2nncc2C(F)F)c2ncc(-c3ccc(Cl)s3)n2c1)c1nnc[nH]1 [Example 38]
2,1 to 100,CC[C@H](NC(=O)c1cc(-n2nncc2C(F)F)c2ncc(-c3ccc(C)s3)n2c1)c1nnc[nH]1 [Example 52]
3,1 to 100,CCc1cnnn1-c1cc(C(=O)NCc2ccc(C)nc2)cn2c(-c3ccc(C)s3)cnc12 [Example 22]
